We go through 77 compounds from paper PMC12040169 (PLOS Biology, 2025).

One data set can be described thus: in vitro. To be noted: human, hela cells, % viability.
Take `COc1cc(OC)nc(C(NC(=O)C2CCN(CCc3c[nH]c4ccccc34)CC2)c2ccccc2C)n1` (centres unmarked) [CBK148101]: the viability at 28.5 h, 10 µM came out at 104%.
As for `O=C(NC(c1ccc(F)cc1)c1ccc2ccccc2n1)C1CCN(CCCN2CCOCC2)CC1` (centres unmarked) [CBK148118], the viability at 28.5 h, 10 µM was 91.8%.
As to `COc1cc(OC)nc(C(NC(=O)C2CCN(Cc3cccn3C)CC2)c2ccc(F)cc2)n1` (centres unmarked) [CBK148170], the viability at 28.5 h, 10 µM worked out at 104%.
`Cn1cc(CN2CCC(C(=O)NC(c3ccc4c(c3)OCO4)c3ccccn3)CC2)c2ccccc21` (centres unmarked) [CBK148183]: the viability at 28.5 h, 10 µM was found to be 94%.
Consider `O=C(NC(c1ccccc1)c1ccco1)C1CCN(CCN2C(=O)c3ccccc3C2=O)CC1` (centres unmarked) [CBK148297], for which the viability at 28.5 h, 10 µM stood at 120%.
As to `CC(C)(C)C(=O)CN1CCC(C(=O)NC(c2ccccc2)c2ccco2)CC1` (centres unmarked) [CBK148298], the viability at 28.5 h, 10 µM amounted to 109%.
As for `Cc1ccccc1C(c1ncccc1C)N(C)C(=O)C1CCN(Cc2ccc(Cl)c(Cl)c2)CC1` (centres unmarked) [CBK148366], the viability at 28.5 h, 10 µM is 92.2%.
Regarding `Cc1cccnc1C(c1ccc(F)cc1)N(C)C(=O)C1CCN(CCc2ccc(Br)cc2)CC1` (centres unmarked) [CBK148397], the viability at 28.5 h, 10 µM turned out to be 90.5%.
Take `CN(CCCN1CCC(C(=O)NC(c2cccnc2)c2ccc3c(c2)OCO3)CC1)S(C)(=O)=O` (centres unmarked) [CBK148505]: the viability at 28.5 h, 10 µM turned out to be 93.1%.
Regarding `O=C(NC(c1ccccc1)c1ccsc1)C1CCN(C2Cc3ccccc3C2)CC1` (centres unmarked) [CBK148541], the viability at 28.5 h, 10 µM came to 80%.
In the case of `CC(NC(=O)C1CCN(CCOc2ccccc2)CC1)c1ccccc1` (centres unmarked) [CBK148610], the viability at 28.5 h, 10 µM was 91.5%.
The same measure, in the same setting: as for `CC(NC(=O)C1CCN(CCc2ccccc2)CC1)c1ccccc1` (centres unmarked) [CBK148612], the figure is 99.6%; as for `CC(NC(=O)C1CCN(CCOc2ccc(F)cc2)CC1)c1cccc2ccccc12` (centres unmarked) [CBK148634], 93.6%; as for `CC(NC(=O)C1CCN(CCN2C(=O)c3ccccc3C2=O)CC1)c1ccc(F)cc1` (centres unmarked) [CBK148750], 107%.
For the compound `C=CCN1CCC(C(=O)NC(C)c2cc(OC)ccc2OC)CC1` (centres unmarked) [CBK148762], the viability at 28.5 h, 10 µM was found to be 116%.
As for `COc1ccc(OC)c(C(C)NC(=O)C2CCN(CCc3c[nH]c4ccccc34)CC2)c1` (centres unmarked) [CBK148763], the viability at 28.5 h, 10 µM was 99.2%.
Consider `COc1ccc(OC)c(C(C)NC(=O)C2CCN(CCc3cccs3)CC2)c1` (centres unmarked) [CBK148766], for which the viability at 28.5 h, 10 µM stood at 98.8%.
With `COc1ccc(C(NC(=O)C2CCN(CCOc3ccc4ccccc4c3)CC2)c2ccccc2C)cn1` (centres unmarked) [CBK148792], the viability at 28.5 h, 10 µM amounted to 73.1%.
As for `O=C(NCC1COc2ccccc2O1)c1ccc2[nH]ccc2c1` (centres unmarked) [CBK149054], the viability at 28.5 h, 10 µM came out at 91.2%.
On to `O=C(NCc1ccc2occc2c1)c1ccc2[nH]ccc2c1` [CBK149055], for which the viability at 28.5 h, 10 µM stood at 89.7%.
Turning to `CSCCCNC(=O)c1ccc2[nH]ccc2c1` [CBK149056], the viability at 28.5 h, 10 µM was found to be 100%.
With `CN(C)CCNC(=O)c1ccc2[nH]ccc2c1` [CBK149062], the viability at 28.5 h, 10 µM came to 112%.
Regarding `O=C(NCCc1ccc(O)cc1)c1ccc2[nH]ccc2c1` [CBK149063], the viability at 28.5 h, 10 µM amounted to 89.5%.
Consider `COc1cc(CNC(=O)c2ccc3[nH]ccc3c2)cc(OC)c1OC` [CBK149073], for which the viability at 28.5 h, 10 µM was determined as 91%.
Same read-out and setting: as for `N#Cc1ccc(CNC(=O)c2ccc3[nH]ccc3c2)cc1` [CBK149078], the figure is 87.8%; as for `O=C(Nc1ccc2[nH]c(=O)[nH]c2c1)c1ccc2[nH]ccc2c1` [CBK149083], 97.5%; as for `CN1CCC(N2CCN(C(=O)c3ccc(-c4cccc(C(F)(F)F)c4)o3)CC2)CC1` [CBK149085], 91.2%.
On to `Cc1onc(-c2ccc(Cl)cc2)c1C(=O)N1CCN(C2CCN(C)CC2)CC1` [CBK149087], for which the viability at 28.5 h, 10 µM is 97.1%.
With `CN1CCC(N2CCN(C(=O)c3cnc(-c4ccccn4)nc3C(F)(F)F)CC2)CC1` [CBK149089], the viability at 28.5 h, 10 µM amounted to 107%.
In the case of `CN1CCC(N2CCN(C(=O)c3ccccc3Nc3cccc(C(F)(F)F)c3)CC2)CC1` [CBK149097], the viability at 28.5 h, 10 µM was 88.7%.
With `CN1CCC(N2CCN(C(=O)c3ccc4nc[nH]c4c3)CC2)CC1` [CBK149099], the viability at 28.5 h, 10 µM was 94.7%.
For `O=c1cc(CN2CCC[C@@H]2CN2CCCC2)[nH]c(=O)[nH]1` [CBK149108], the viability at 28.5 h, 10 µM was found to be 92.2%.
Regarding `O=C1NC(=O)C(CCCCN2CCC[C@@H]2CN2CCCC2)N1` (some centres unmarked) [CBK149110], the viability at 28.5 h, 10 µM worked out at 93.4%.
Take `COc1cc(CN2CCC(C(=O)c3ccc(F)cc3)CC2)cc(OC)c1OC` [CBK149112]: the viability at 28.5 h, 10 µM is 99.5%.
On the same count and under the same terms, as for `O=C(c1ccc(F)cc1)C1CCN(Cc2ccc(Cl)c(Cl)c2)CC1` [CBK149114], the figure is 98.5%; as for `NC(=O)CN1CCC(C(=O)c2ccc(F)cc2)CC1` [CBK149130], 96.6%.
As for `O=C(c1ccc(F)cc1)C1CCN(Cc2ncc[nH]2)CC1` [CBK149135], the viability at 28.5 h, 10 µM was 90.1%.
For the compound `COc1ccc(OCCN2CCC(C(=O)c3ccc(F)cc3)CC2)cc1` [CBK149136], the viability at 28.5 h, 10 µM worked out at 104%.
With `O=C(CN1CCC(C(=O)c2ccc(F)cc2)CC1)c1ccsc1` [CBK149137], the viability at 28.5 h, 10 µM worked out at 95.5%.
Consider `CSCCN1CCC(C(=O)c2ccc(F)cc2)CC1` [CBK149145], for which the viability at 28.5 h, 10 µM is 89.4%.
For the compound `Nc1ncc(-c2ccc(C(=O)N3CCOCC3)cc2)nc1C(=O)Nc1ccccc1` [CBK149153], the viability at 28.5 h, 10 µM amounted to 85.7%.
As for `Nc1ncc(-c2ccc(C(=O)N3CCOCC3)cc2)nc1C(=O)NC1CCCC1` [CBK149155], the viability at 28.5 h, 10 µM is 89.3%.
Regarding `Nc1ncc(-c2ccc(C(=O)N3CCOCC3)cc2)nc1C(=O)NCc1ccc(O)cc1` [CBK149161], the viability at 28.5 h, 10 µM was determined as 109%.
In the case of `Cc1ccc(-c2oncc2C(=O)N2CCC(n3c(=O)[nH]c4ccccc43)CC2)cc1` [CBK149180], the viability at 28.5 h, 10 µM amounted to 106%.
Still for that read-out and setting: as for `CC(=O)Nc1ccc(-c2ccc(COC3CCN(C(=O)c4ccc(Cl)c(Cl)c4)CC3)cc2)cc1` [CBK149215], the figure is 89.3%; as for `CC(=O)Nc1ccc(-c2ccc(COC3CCN(C(=O)c4ccc(F)cc4F)CC3)cc2)cc1` [CBK149216], 101%; as for `CC(=O)Nc1ccc(-c2ccc(COC3CCN(C(=O)Cc4ccc(Cl)cc4)CC3)cc2)cc1` [CBK149218], 94.6%.
Consider `CC(=O)Nc1ccc(-c2ccc(COC3CCN(C(=O)Cc4ccc(C#N)cc4)CC3)cc2)cc1` [CBK149225], for which the viability at 28.5 h, 10 µM is 91.7%.
Regarding `COC(=O)c1ccc(-c2cc3ccccc3o2)nc1` [CBK149228T], the viability at 28.5 h, 10 µM turned out to be 85.9%.
On to `COC(=O)c1ccc(-c2ccsc2)nc1` [CBK149229], for which the viability at 28.5 h, 10 µM stood at 116%.
For the compound `CCc1ccc(-c2ccc(C(=O)OC)cn2)cc1` [CBK149232], the viability at 28.5 h, 10 µM amounted to 95.2%.
The same measure, in the same setting: to `CCOC(=O)c1cccnc1-c1cc2ccccc2o1` [CBK149237] belongs 99.7%; to `CCOC(=O)c1cccnc1-c1ccc2[nH]ccc2c1` [CBK149238], 99.7%.
Take `CCOC(=O)c1cccnc1-c1ccc(OC)c(OC)c1` [CBK149240]: the viability at 28.5 h, 10 µM is 94.2%.
Turning to `CCOC(=O)c1cccc(-c2ccsc2)n1` [CBK149244], the viability at 28.5 h, 10 µM is 97.6%.
Still for that read-out and setting: to `CCOC(=O)c1cccc(-c2ccc(OC)c(OC)c2)n1` [CBK149247] belongs 95.4%.
Turning to `CCOC(=O)c1ccnc(-c2cc3ccccc3o2)c1` [CBK149253], the viability at 28.5 h, 10 µM was determined as 101%.
Consider `CC(C)(C)c1nc(-c2ccccc2)c2ccccn12` [CBK149256], for which the viability at 28.5 h, 10 µM came to 101%.
The same measure, in the same setting: as for `COc1ccc2[nH]cc(CC(=O)Nc3nc4c(OC)cccc4s3)c2c1` [CBK149279], the figure is 97.8%.
With `O=C(CC1CC1)NCc1ccc(-c2csnn2)cc1` [CBK149287], the viability at 28.5 h, 10 µM worked out at 92.8%.
On to `O=C(NCc1ccc(-c2csnn2)cc1)c1ccco1` [CBK149289], for which the viability at 28.5 h, 10 µM worked out at 89%.
With `O=C(/C=C/c1ccc2c(c1)OCO2)NCc1ccc(-c2csnn2)cc1` [CBK149297], the viability at 28.5 h, 10 µM worked out at 88.1%.
Turning to `O=C(NCc1ccc(-c2csnn2)cc1)c1ccc(Oc2ccccc2)cc1` [CBK149300], the viability at 28.5 h, 10 µM is 108%.
On the same count and under the same terms, as for `O=C1CC(C(=O)NCc2ccc(-c3csnn3)cc2)c2ccccc21` (centres unmarked) [CBK149301], the figure is 93.1%.
Regarding `COc1ccccc1OCC(=O)NCc1ccc(-c2csnn2)cc1` [CBK149303], the viability at 28.5 h, 10 µM turned out to be 99.5%.
Regarding `O=C(NCc1ccc(-c2csnn2)cc1)c1cccnc1` [CBK149309], the viability at 28.5 h, 10 µM was determined as 87%.
As to `O=C(NCc1ccc(-c2csnn2)cc1)c1c(F)cccc1F` [CBK149310], the viability at 28.5 h, 10 µM turned out to be 86%.
With `O=C(COc1ccc(F)cc1)NCc1ccc(-c2csnn2)cc1` [CBK149315], the viability at 28.5 h, 10 µM was 98.3%.
As for `COc1cc(C(=O)N2CCC3(CC2)NC(=O)c2cc(Br)ccc2O3)ccc1C` [CBK149464], the viability at 28.5 h, 10 µM amounted to 92.3%.
Still for that read-out and setting: to `COc1cc(C(=O)N2CCC3(CC2)CC(=O)c2cc(Br)ccc2O3)ccc1C` [CBK149465] belongs 110%; to `CS(=O)(=O)c1ccc(-n2cc(CN3CCC(Sc4ccccc4)CC3)nn2)cc1` [CBK149468], 101%; to `CC(C)(C)OC(=O)N1CCC(OCc2cn(-c3ccc(-n4cncn4)cc3)nn2)CC1` [CBK149477], 87.1%.
Same read-out and setting: to `CC(C)(C)OC(=O)N1CCC(OCc2cn(-c3ccc(S(C)(=O)=O)cc3)nn2)CC1` [CBK149478] belongs 98.1%.
The same measure, in the same setting: as for `CC(=O)Nc1ccc(-c2cccc(COC3CCN(C(=O)Cc4cc(F)cc(F)c4F)CC3)c2)cc1` [CBK149489], the figure is 89.2%; as for `CC(=O)Nc1ccc(-c2cccc(COC3CCN(C(=O)Cc4ccc(C#N)cc4)CC3)c2)cc1` [CBK149495], 101%; as for `CS(=O)(=O)c1ccc(-c2cccc(COC3CCN(C(=O)Cc4ccc(Cl)cc4)CC3)c2)cc1` [CBK149504], 110%.

Still in this data set, the particulars now being: human, hela cells, % viability, bulk resorufin, single well.
Regarding `Cc1ccc(-c2oncc2C(=O)N2CCC(C#N)(c3ccccc3)CC2)cc1` [CBK149179], the viability at 28.5 h, 10 µM turned out to be 95.7%.

As usually defined, the viability is a read-out of living cells in per cent, often relative to untreated cells.
